According to patent US11939320B2, “Modulators of the integrated stress pathway” (Calico Life Sciences LLC, priority 2017, dated 2024):

Test system: HEK293T cells carrying the ATF4 luciferase reporter
Assay: ATF4-Luc assay (in vitro model of VWMD)
Assay type: cell-based
Settings: Homo sapiens, HEK-293T; HEK293T cells with ATF4 5'-UTR firefly luciferase reporter; 1 μg/mL tunicamycin; 7 hours; One Glo luminescence
Method in brief: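 Compound at 200 nM and tunicamycin at 1 μg/mL were given together for 7 h to HEK293T cells stably transduced with an ATF4 5′-UTR-driven firefly luciferase reporter. Read-out by luminescence, reported as EC50.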

How did the EC50 turn out when `O=C(COc1ccc(Cl)c(Cl)c1)N[C@H]1CC[C@H](C(=O)Nc2ccc(OCC(F)(F)F)nc2)CC1` [Compound 103, (1r,4r)-4-[2-(3,4-dichlorophenoxy)acetamido]-N-[6-(2,2,2-trifluoroethoxy)pyridin-3-yl]cyclohexane-1-carboxamide] was run?
The EC50 was over 2000 nM.

Which EC50 does the source give for `O=C(COc1ccc(Cl)c(F)c1)N[C@H]1CC[C@H](C(=O)NCCOc2ccc(Cl)c(F)c2)CC1` [Compound 178, (1r,4r)-4-[2-(4-chloro-3-fluorophenoxy)acetamido]-N-[2-(4-chloro-3-fluorophenoxy)ethyl]cyclohexane-1-carboxamide] here?
The EC50 was 10 to 50 nM.

How did the EC50 turn out when `O=C(COc1ccc(Cl)c(Cl)c1)N[C@H]1CC[C@H](C(=O)Nc2ccc(OC(F)F)nc2)CC1` [Compound 102, (1r,4r)-4-[2-(3,4-dichlorophenoxy)acetamido]-N-[6-(difluoromethoxy)pyridin-3-yl]cyclohexane-1-carboxamide] was run?
Its EC50 is under 10 nM.

For `O=C(COc1ccc(Cl)c(F)c1)N[C@@H]1CC[C@@H](C(=O)NCc2cc3cc(Cl)ccc3[nH]2)OC1` [Compound 142, (2S,5R)-5-[2-(4-chloro-3-fluorophenoxy)acetamido]-N-[(5-chloro-1H-indol-2-yl)methyl]oxane-2-carboxamide], which EC50 is on record?
Its EC50 is 50 to 250 nM.

`Cc1cncc(CNC(=O)[C@H]2CC[C@H](NC(=O)COc3ccc(Cl)c(F)c3)CC2)c1` [Compound 108, (1r,4r)-4-[2-(4-chloro-3-fluorophenoxy)acetamido]-N-[(5-methylpyridin-3-yl)methyl]cyclohexane-1-carboxamide] was tested. Which EC50 did it give?
The EC50 was over 2000 nM.

For `O=C(COc1ccc(Cl)c(F)c1)N[C@@H]1CC[C@@H](C(=O)NCc2cn3ccc(Cl)cc3n2)OC1` [Compound 138, (2S,5R)-5-[2-(4-chloro-3-fluorophenoxy)acetamido]-N-[(7-chloroimidazo[1,2-a]pyridin-2-yl)methyl]oxane-2-carboxamide], which EC50 is on record?
The EC50 was 10 to 50 nM.

Which EC50 does the source give for `O=C(NCc1ccc(C(F)(F)F)cn1)[C@@H]1CC[C@@H](NC(=O)[C@H]2CNc3cc(Cl)ccc3O2)CO1` (single isomer, unassigned) [Compound 164] here?
The EC50 was 50 to 250 nM.

How did the EC50 turn out when `O=C(COc1ccc(Cl)c(F)c1)N[C@H]1CC[C@H](C(=O)N2CCC[C@@H]2c2cc(F)ccc2F)CC1` [Compound 113, 2-(4-chloro-3-fluorophenoxy)-N-{(1R,4r)-4-[(2R)-2-(2,5-difluorophenyl)pyrrolidine-1-carbonyl]cyclohexyl}acetamide] was run?
Its EC50 is over 2000 nM.

For `O=C(COc1ccc(Cl)c(F)c1)N[C@H]1C[C@H](C(=O)NCc2ccc(Cl)cc2)C1` [Compound 169, (1r,3r)-3-[2-(4-chloro-3-fluorophenoxy)acetamido]-N-[(4-chlorophenyl)methyl]cyclobutane-1-carboxamide], which EC50 is on record?
The EC50 was over 2000 nM.

`O=C(COc1ccc(F)c(F)c1)N[C@H]1CC[C@H](C(=O)NCc2nc3cc(F)c(F)cc3[nH]2)CC1` [Compound 154, (1r,4r)-N-[(5,6-difluoro-1H-benzimidazol-2-yl)methyl]-4-[2-(3,4-difluorophenoxy)acetamido]cyclohexane-1-carboxamide] was tested. Which EC50 did it give?
Its EC50 is over 2000 nM.

With `O=C(COc1ccc(Cl)c(F)c1)N[C@@H]1CC[C@@H](C(=O)N2CCn3c(nnc3C(F)(F)F)C2)OC1` [Compound 144, 2-(4-chloro-3-fluorophenoxy)-N-{(3R,6S)-6-[3-(trifluoromethyl)-5,6-dihydro[1,2,4]triazolo[4,3-a]pyrazine-7(8H)-carbonyl]oxan-3-yl}acetamide] as the molecule, how does the EC50 read?
Its EC50 is over 2000 nM.

`O=C(COc1ccc(Cl)c(F)c1)N[C@H]1CC[C@H](C(=O)N2CC(c3ccc(Cl)cc3)C2)CC1` [Compound 129, 2-(4-chloro-3-fluorophenoxy)-N-{(1r,4r)-4-[3-(4-chlorophenyl)azetidine-1-carbonyl]cyclohexyl}acetamide] was tested. Which EC50 did it give?
The EC50 was under 10 nM.

With `O=C(COc1ccc(Cl)c(F)c1)N[C@@H]1CC[C@@H](C(=O)NCc2ccc(C(F)(F)F)cn2)OC1` [Compound 186, (2S,5R)-5-[2-(4-chloro-3-fluorophenoxy)acetamido]-N-{[5-(trifluoromethyl)pyridin-2-yl]methyl}oxane-2-carboxamide] as the molecule, how does the EC50 read?
The EC50 was 10 to 50 nM.

With `O=C(COc1ccc(Cl)c(F)c1)N[C@H]1CC[C@H](C(=O)N2CC(c3ccccc3)C2)CC1` [Compound 131, 2-(4-chloro-3-fluorophenoxy)-N-[(1r,4r)-4-(3-phenylazetidine-1-carbonyl)cyclohexyl]acetamide] as the molecule, how does the EC50 read?
The EC50 was 10 to 50 nM.

Which EC50 does the source give for `O=C(COc1ccc(Cl)c(F)c1)N[C@@H]1CC[C@@H](C(=O)Nc2nccc(-c3ccc(Cl)c(F)c3)n2)OC1` [Compound 145, (2S,5R)-5-[2-(4-chloro-3-fluorophenoxy)acetamido]-N-[4-(4-chloro-3-fluorophenyl)pyrimidin-2-yl]oxane-2-carboxamide] here?
The EC50 was 500 to 2000 nM.
